# Experimental data as given in US8648110B2, “2-aryl-acetic acids, their derivatives and pharmaceutical compositions containing them” (Dompe Pha.R.Ma S.p.A., priority 2003, dated 2014).
# Experiments:
# [1] = target: T1, CXCR1 (Homo sapiens, UniProt P25024); experiment: IL-8 induced PMN chemotaxis (CXCR1); assay type: cell-based; conditions: for inhibition at 0.01 µM: compound c = 10^−8 M, IL-8 induced human PMN chemotaxis; for IL-8 inhibitory activity: result in words, IL-8 induced chemotaxis
# T1 construct: endogenous in cells; host or cells: human polymorphonucleate leukocytes (PMNs) isolated from blood of healthy volunteers
# T1 sequence (P25024 1-350): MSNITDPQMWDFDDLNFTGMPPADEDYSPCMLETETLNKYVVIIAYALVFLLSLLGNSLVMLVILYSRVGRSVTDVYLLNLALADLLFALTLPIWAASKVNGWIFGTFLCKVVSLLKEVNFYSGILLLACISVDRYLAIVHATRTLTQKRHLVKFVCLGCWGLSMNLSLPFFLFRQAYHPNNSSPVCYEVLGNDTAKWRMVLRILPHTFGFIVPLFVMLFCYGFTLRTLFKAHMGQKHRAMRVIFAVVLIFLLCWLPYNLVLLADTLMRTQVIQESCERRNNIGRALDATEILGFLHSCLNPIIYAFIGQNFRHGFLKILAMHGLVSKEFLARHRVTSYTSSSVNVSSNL
# [2] = target: T2, CXCR2 (Homo sapiens, UniProt P25025); experiment: GRO-α induced PMN chemotaxis (CXCR2); assay type: cell-based; conditions: compound c = 10^−8 M
# T2 construct: endogenous in cells; host or cells: human polymorphonucleate leukocytes (PMNs) isolated from blood of healthy volunteers
# T2 sequence (P25025 1-360): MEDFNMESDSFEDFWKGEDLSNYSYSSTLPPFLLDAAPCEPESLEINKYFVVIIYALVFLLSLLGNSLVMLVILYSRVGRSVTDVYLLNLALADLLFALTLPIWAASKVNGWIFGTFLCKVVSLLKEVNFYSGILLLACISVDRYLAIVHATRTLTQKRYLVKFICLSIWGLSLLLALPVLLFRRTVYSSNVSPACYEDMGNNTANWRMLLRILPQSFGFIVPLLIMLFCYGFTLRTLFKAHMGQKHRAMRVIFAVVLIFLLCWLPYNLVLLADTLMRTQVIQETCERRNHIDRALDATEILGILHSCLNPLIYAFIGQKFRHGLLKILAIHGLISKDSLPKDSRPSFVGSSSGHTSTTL
# Method: The compounds of the invention of formula I were evaluated in vitro for their ability to inhibit chemotaxis of polymorphonucleate leukocytes (hereinafter referred to as PMNs) and monocytes induced by the fractions of IL-8 and GRO-α. For this purpose, in order to isolate the PMNs from heparinized human blood, taken from healthy adult volunteers, mononucleates were removed by means of sedimentation on dextran (according to the procedure disclosed by W. J. Ming et al., J. Immunol., 138, 1469, 1987) and red blood cells by a hypotonic solution. The cell viability was calculated by exclusion with Trypan blue, whilst the ratio of the circulating polymorphonucleates was estimated on the cytocentrifugate after staining with Diff Quick.
# During the chemotaxis assay (according to W. Falket et al., J. Immunol. Methods, 33, 239, 1980) PVP-free filters with a porosity of 5 μm and microchambers suitable for replication were used.
# The compounds of the invention of formula (I) and (Ia) were evaluated at a concentration ranging between 10^−6 and 10^−10 M; for this purpose they were added, at the same concentration, both to the lower pores and the upper pores of the microchamber. Evaluation of the ability of the compounds of the invention of formula I to inhibit IL-8-induced chemotaxis of human monocytes was carried out according to the method disclosed by Van Damme J. et al. (Eur. J. Immunol., 19, 2367, 1989).
# The biological activity of compounds showing high potency either as inhibitors of IL-8 induced PMN chemotaxis (CXCR1) or as dual inhibitors of IL-8 and GRO-α induced PMN chemotaxis (CXCR1/CXCR2) is reported in Table 1.
inhibition at 0.01 µM [1] [%],inhibition at 0.01 µM [2] [%],SMILES,IL-8 inhibitory activity [1]
60 ± 7,52 ± 5,"Cc1cc(NS(=O)(=O)C(F)(F)F)ccc1CC(=O)NS(C)(=O)=O [Example 43, {2-methyl-4-[(trifluoromethanesulfonyl)amino]phenyl}acetyl methanesulfonamide]",
60 ± 7,65 ± 5,"CC(=O)c1ccc(CC(=O)O)n1C [Example 11, (5-acetyl-1-methyl-1H-pyrrol-2-yl)acetic acid]",
60 ± 10,4 ± 8,"Cc1cc(CC(C)C)ccc1CC(=O)O [Example 4, (4-isobutyl-2-methylphenyl)acetic acid]",
50 ± 10,46 ± 14,"CC(=O)c1ccc(CC(=O)NS(C)(=O)=O)n1C [Example 41, (5-acetyl-1-methyl-1H-pyrrol-2-yl)acetyl methanesulfonamide]",
67 ± 14,0,"Cc1cc(CC(C)C)ccc1CC(=O)NS(C)(=O)=O [Example 42, (4-isobutyl-2-methylphenyl)acetyl methanesulfonamide]",
67 ± 14,27 ± 8,"CCC(=O)c1cccc(CC(=O)O)c1Cl [Example 3, (2-chloro-3-propionylphenyl)acetic acid]",
62 ± 8,5 ± 10,"Cc1c(CC(=O)O)cccc1C(C)C [Example 2, (3-isopropyl-2-methylphenyl)acetic acid]",
,,"CC(C)Cc1ccc(CC(=O)O)cc1 [ibufenac, 2-[4-isobutylphenyl]acetic acid, reference compound]",do not exert any IL-8 inhibitory activity
54 ± 10,44 ± 9,"CC(=O)c1ccc(CC(N)=O)n1C [Example 19, (5-acetyl-1-methyl-1H-pyrrol-2-yl)acetamide]",
,,"O=C(O)Cc1cccc(C(=O)c2ccccc2)c1 [ketofenac, 2-[3-benzoylphenyl]acetic acid, reference compound]",do not exert any IL-8 inhibitory activity
58 ± 11,65 ± 11,"CC(C)C(=O)c1ccc(CC(=O)O)n1C [Example 12, (5-isobutyryl-1-methyl-1H-pyrrol-2-yl)acetic acid]",
